Patent US20210190799A1, “METHOD FOR DIAGNOSING LIVER DISEASES AND METHOD FOR SCREENING THERAPEUTIC AGENT FOR LIVER DISEASES USING CHANGES IN EXPRESSION OF TM4SF5 PROTEIN” (SEOUL NATIONAL UNIVERSITY R&DB FOUNDATION, priority 2017, published 2021)
Substitutions are numbered along the chain they refer to.

How the values were obtained:
liver tissue [1] = test: Liver disease mouse model induced by carbon tetrachloride (CCl4); format: in vivo, BALB/C mice
Method: First, a mouse model in which liver disease was induced by intraperitoneally injecting carbon tetrachloride (CCl4) once a week for 1, 4 or 16 weeks at the concentration of 1 mg/kg to 4-week-old BALB/C mice (Orient Bio, Korea) was prepared.
On the other hand, after administering CCl4 to the TM4SF5 gene KO mouse prepared in Example <7-1> as described above, the liver tissue was obtained and Mason's trichrome staining was performed, and the results are shown in FIG. 22C. As a result, it was confirmed that the accumulation of collagen was decreased in the TM4SF5 gene KO mouse compared to the control group (FIG. 22C).

c-Src protein = molecular target: T1, c-Src protein (Mus musculus, UniProt P05480); test: Western blotting of separated liver tissue of the liver disease model mouse treated with c-Src inhibitor PP2 or control PP3; format: cell-based; details: FIG. 26C
T1 construct: from tissue; host or cells: liver tissue / hepatocytes of CCl4-treated BALB/C mice
Method: Particularly, a lysis buffer [50 mM Tris-HCl (pH 7.4), 1% NP40, 0.25% sodium dioxycholate, 150 mM NaCl, 1 mM EDTA], SDS (sodium dodecyl sulfate), Na3O4V and protease inhibitor cocktail (GenDepot) were added to the obtained liver tissue, which was left at 4° C. for 15 minutes to lyse the tissue. The lysate was centrifuged for 30 minutes under the conditions of 13,000 rpm and 4° C. to obtain a supernatant. The proteins present in the supernatant were quantified using BCA reagent (Thermo Scientifics). 4× sample buffer [4 ml of 100% glycerol, 2.4 ml of Tris-HCl (pH 6.8), 0.8 g of SDS, 4 mg of brominated phenol blue, 0.4 ml of β-mercaptoethanol and 3.1 ml of H2O, final volume: 10 ml] was added thereto, which was boiled at 100° C. for 5 minutes. SDS-PAGE was performed, and the proteins were transferred to a nitrocellulose membrane (Whatman). The membrane was pretreated in a solution containing 5% skim milk for 1 hour, and reacted with the antibodies against laminin (Abcam, UK), ACC1 (Cell Signalling, USA), SREBP1 precursor (Santa cruz, USA), mature SREBP1 (Santa cruz, USA), MTP (Santa cruz, USA), PPARα (Santa cruz, USA), pY^706STAT3 (Millipore, USA), STAT3 (Santa cruz, USA), α-tubulin (Sigma, USA) and TM4SF5 (J Clin Invest. 2008 April; 118(4): 1354-66) as the primary antibodies at 4° C. for 15 hours. […]

Castor1 protein = molecular target: T2, Castor1 protein (Homo sapiens, UniProt Q8WTX7); test: [3H]-arginine binding to precipitated Castor1 protein
T2 construct: made in house; host or cells: HEK293FT cells, transient transfection with PEI, pull-down on streptavidin-coated beads
T2 sequence (Q8WTX7 1-329): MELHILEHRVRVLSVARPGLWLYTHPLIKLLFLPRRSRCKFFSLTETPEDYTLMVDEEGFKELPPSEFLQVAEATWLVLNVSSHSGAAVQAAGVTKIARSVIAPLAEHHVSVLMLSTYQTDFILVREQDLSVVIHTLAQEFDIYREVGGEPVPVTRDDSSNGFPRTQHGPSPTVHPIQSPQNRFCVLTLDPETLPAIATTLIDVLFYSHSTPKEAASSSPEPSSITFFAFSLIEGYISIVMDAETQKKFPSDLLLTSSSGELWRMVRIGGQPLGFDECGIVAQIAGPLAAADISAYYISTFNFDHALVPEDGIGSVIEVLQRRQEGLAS
Method: (§1) First, HEK293FT cells (Thermo, USA) were prepared by culturing in 5% CO2 at 37° C. using DMEM containing 10% FBS and antibiotics. The prepared cells were distributed in 150 mm plates and cultured to the density of 60%, which were transfected with the construct expressing TM4SF5, MetaP2, Castrol, TM4SF1, TM4SF4 and TM4SF5 proteins constructed in Example 11 using PEI. Two days after the transfection, the desired protein was precipitated under the same conditions and methods as described in Example 11 using the beads coated with streptavidin. The precipitate was added with 10 μM [3H]-arginine (American radiolabeled chemicals, USA), followed by reaction at 4° C. for 1 hour. At this time, a sample in which 10 mM of L-arginine was added to the same amount of beads was used as the control. Upon completion of the reaction, the beads were washed 3 times with lysis buffer, to which 2 m ? of scintillation cocktail (Ultima gold, Perkin Elmer, USA) was added. The mixture was vortexed and analyzed using a liquid scintillation counter (Tri-Carb, Perkin Elmer, USA).

[2] = molecular target: T3, TM4SF5 mutant, 124th to 129th amino acid residues (Homo sapiens, UniProt O14894, E129A/F128S/G125A/H127A/W124A/Y126S); test: Arginine binding to TM4SF5 mutants of the 124th to 129th amino acid residues; details: FIG. 15G
T3 construct: made in house
T3 sequence (O14894 1-197 W124A/G125A/Y126S/H127A/F128S/E129A): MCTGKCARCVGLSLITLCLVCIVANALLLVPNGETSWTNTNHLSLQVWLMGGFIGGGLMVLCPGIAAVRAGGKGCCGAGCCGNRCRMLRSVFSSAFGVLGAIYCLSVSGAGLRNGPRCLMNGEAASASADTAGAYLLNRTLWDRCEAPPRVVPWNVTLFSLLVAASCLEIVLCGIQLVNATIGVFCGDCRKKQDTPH
Method: as §1
(§2) First, a short extracellular loop (SEL) fragment mutant comprising the 31st to 42nd amino acid residues from the N-terminus of the amino acid sequence constituting TM4SF5 protein (SEQ. ID. NO: 1) and a long extracellular loop (LEL) fragment mutant comprising the 113th to 157th amino acid residues from the N-terminus were prepared. […]

[3] = High arginine diet for 10 weeks: body weight and liver fat (H&E); format: in vivo, mouse; details: for weight gain compared to the mouse fed a normal diet: high arginine diet 10 weeks, FIG. 17A
Method: Particularly, the TM4SF5 gene KO mouse prepared in Example <7-1> was fed L-arginine (40 g/kg of mouse body weight) for 10 weeks.
The liver tissue was extracted from the TM4SF5 gene KO mouse fed a high arginine diet in Example <13-1>, and H&E staining was performed using the method described above.

TM4SF5 protein = molecular target: T4, TM4SF5 protein (Homo sapiens, UniProt O14894); test: [3H]-arginine binding to precipitated TM4SF5 protein (liquid scintillation)
T4 construct: in addition to the wild type of TM4SF5 protein (WT, full length); made in house; host or cells: HEK293FT cells, transient transfection with PEI, pull-down on streptavidin-coated beads
T4 sequence (O14894 1-197): T3 sequence (O14894 1-197 W124A/G125A/Y126S/H127A/F128S/E129A) with A124W, A125G, S126Y, A127H, S128F, A129E
Method: as §1
An experiment was performed to confirm whether the binding of TM4SF5 protein and arginine confirmed in Example <12-2> was concentration-dependent. The experiment was performed under the same conditions and methods as described in Example <12-2>, except that HEK293FT cells transformed with TM4SF5 protein were used and 0, 0.01, 0.05. 0.1 or 0.5 mM L-arginine was added.

[4] = molecular target: T5, short extracellular loop (SEL) mutant of TM4SF5 protein (Homo sapiens, UniProt O14894); test: Arginine binding to short extracellular loop (SEL) mutant of TM4SF5; details: FIG. 15F
T5 construct: a short extracellular loop (SEL) fragment mutant comprising the 31st to 42nd amino acid residues from the N-terminus; made in house
Method: as §1, §2

liver tissue [5] = test: Liver cancer induced by injecting diethylnitrosamine (DEN); format: in vivo; details: transgenic mouse
Method: The exacerbation process of liver disease was confirmed using the transgenic mouse as follows. Particularly, the transgenic mouse was induced with liver cancer by injecting diethylnitrosamine (DEN). The liver tissue was extracted from the mouse, and H&E staining was performed. As a result, it was confirmed that liver cancer was induced (FIG. 31A). It was also confirmed that the phosphorylation of STAT3 protein and the expression of laminin were increased as the expression of TM4SF5 protein increased (FIG. 31B).

[6] = tested on: STAT3 phosphorylation and laminin protein expression; test: Western blotting of separated liver tissue of the liver disease model mouse treated with IL-6; format: cell-based; details: FIG. 26A
Method: Particularly, a lysis buffer [50 mM Tris-HCl (pH 7.4), 1% NP40, 0.25% sodium dioxycholate, 150 mM NaCl, 1 mM EDTA], SDS (sodium dodecyl sulfate), Na3O4V and protease inhibitor cocktail (GenDepot) were added to the obtained liver tissue, which was left at 4° C. for 15 minutes to lyse the tissue. The lysate was centrifuged for 30 minutes under the conditions of 13,000 rpm and 4° C. to obtain a supernatant. The proteins present in the supernatant were quantified using BCA reagent (Thermo Scientifics). 4× sample buffer [4 ml of 100% glycerol, 2.4 ml of Tris-HCl (pH 6.8), 0.8 g of SDS, 4 mg of brominated phenol blue, 0.4 ml of β-mercaptoethanol and 3.1 ml of H2O, final volume: 10 ml] was added thereto, which was boiled at 100° C. for 5 minutes. SDS-PAGE was performed, and the proteins were transferred to a nitrocellulose membrane (Whatman). The membrane was pretreated in a solution containing 5% skim milk for 1 hour, and reacted with the antibodies against laminin (Abcam, UK), ACC1 (Cell Signalling, USA), SREBP1 precursor (Santa cruz, USA), mature SREBP1 (Santa cruz, USA), MTP (Santa cruz, USA), PPARα (Santa cruz, USA), pY^706STAT3 (Millipore, USA), STAT3 (Santa cruz, USA), α-tubulin (Sigma, USA) and TM4SF5 (J Clin Invest. 2008 April; 118(4): 1354-66) as the primary antibodies at 4° C. for 15 hours. Then, the membrane was reacted with the secondary antibody, and developed on an X-ray film using an ECL solution (Pierce, USA).
In addition, the separated liver tissue was treated with IL-6 and Western blotting was performed as described above to confirm whether the increased STAT3 phosphorylation and laminin protein expression were dependent on IL-6. […] Therefore, it was confirmed that the expressions of laminin and laminin γ2 were increased depending on TM4SF5 protein.

fat-related genes = test: Real-time PCR of fat-related genes in normal hepatocytes treated with IL-6; format: cell-based, C57BL/6 normal mouse; details: FIGS. 4B and 4C
SOCS3 gene = test: SOCS3 shRNA in primary hepatocytes, Western blotting; format: cell-based, mouse; details: FIG. 8E
Description: The primary hepatocytes isolated from the normal mouse (52 weeks old) were transfected with SOCS3 (NM_174466) shRNA (shSOCS3, sense 5′ […]-3′ SEQ. ID. NO: 111; antisense 5′ […]-3′ SEQ. ID. NO: 112) under the same conditions and methods as described in Example <4-1> to prepare hepatocytes wherein the expression of SOCS3 gene was suppressed, and the expression changes of SREBP1 and SOCS3 proteins and the phosphorylation changes of STAT3 were confirmed by Western blotting.

[7] = administered for 4 or 16 weeks, FIG. 22A
[8] = primary hepatic epithelial cells

With `ClC(Cl)(Cl)Cl` [CCl4, carbon tetrachloride] the “expression of TM4SF5 protein, phosphorylation of STAT3 protein and level of ECM in the liver tissue” value (liver tissue [1]; FIG. 23A) was “all increased”, the “accumulation of collagen, Mason's trichrome staining” value (liver tissue [1]; TM4SF5 gene KO mouse compared to the control group, FIG. 22C) was “decreased” and the “cells in the liver tissue, H&E and Mason's trichrome staining” value (liver tissue [1]; [7]) was “died”. For the same molecule, the “collagen between the cells” value (liver tissue [1]; [7]) was “accumulated” and the “mRNA levels of elastin, laminin α2, α3, α5, γ2, and γ3 chains versus control group not treated” value (liver tissue [1]; administered for 4 or 16 weeks, FIG. 23B) was “higher”.
For `CC(C)(C)n1nc(-c2ccc(Cl)cc2)c2c(N)ncnc21` [PP2], the “expression of laminin protein” value (c-Src protein) was “suppressed” and the “phosphorylation of STAT3 protein” value (c-Src protein) was “suppressed”.
With `N=C(N)NCCC[C@H](N)C(=O)O` [arginine, L-arginine] the “binding of Castor1 compared with control protein MetaP2” value (Castor1 protein; FIG. 15B) was “more strongly”, the “binding to Castor1 protein” value (Castor1 protein; FIGS. 15B and 15C) was “directly bound” and the “binding to TM4SF5 mutant of 124th to 129th residues” value [2] was “not bound”. The “weight gain of each mouse in comparison to the starting point of the high arginine diet” value ([3]; TM4SF5 gene KO mouse, FIG. 17B) was “significantly decreased”, the “fat accumulation in the liver tissue, H&E staining” value ([3]; TM4SF5 gene KO mouse, FIG. 17C) was “relatively suppressed” and the “weight gain compared to the mouse fed a normal diet” value ([3]; TM4SF5 gene KO mouse) was “about 7%”. For the same molecule, the “fatty liver, H&E staining of liver tissue” value ([3]; normal mouse, FIG. 17C) was “fatty liver was induced”, the “weight gain compared to the mouse fed a normal diet” value ([3]; normal mouse) was “about 25%” and the “concentration dependence of binding to TM4SF5 protein” value (TM4SF5 protein; 0, 0.01, 0.05, 0.1 or 0.5 mM L-arginine, FIGS. 15D and 15E) was “concentration-dependently”. The “binding to TM4SF5 protein” value (TM4SF5 protein; 10 μM [3H]-arginine, 4° C., 1 hour, FIGS. 15B and 15C) was “directly bound”, the “binding of TM4SF5 compared with control protein MetaP2” value (TM4SF5 protein; FIG. 15B) was “more strongly” and the “binding of TM4SF5 compared with TM4SF1 or TM4SF4” value (TM4SF5 protein; FIG. 15C) was “more strongly”. The “binding to SEL mutant of TM4SF5 protein” value [4] was “not bound”.
With `CCN(CC)N=O` [diethylnitrosamine] the “liver cancer, H&E staining” value (liver tissue [5]; FIG. 31A) was “induced” and the “phosphorylation of STAT3 protein and expression of laminin” value (liver tissue [5]; FIG. 31B) was “increased”.
In the case of “IL-6: a cytokine associated with fatty liver”, the “expression of collagen 1” value [6] is reported as “increased”, the “level of laminin protein” value [6] is reported as “not changed” and the “phosphorylation of STAT3 protein” value [6] is reported as “increased”. The “expressions of Srebp1, Srebp2, Fasn, CD36, Fabp1, Vldlr and Ldlr, the fat-related genes” value (fat-related genes) was “increased”.
For “shSOCS3: SOCS3 shRNA, SEQ. ID. NO: 111 (sense) and 112 (antisense) (sense CAACAUCUCUGUCGGAAGAUU; antisense UCUUCCGACAGAGAUGUUGUU; listed as RNA, chemistry not given here)”, the “amount of SREBP1 protein” value (SOCS3 gene; [8]) was “decreases”, the “phosphorylation of STAT3 protein” value (SOCS3 gene; [8]) was “increases” and the “expression of SOCS3 gene” value (SOCS3 gene; primary hepatocytes) was “decreased”.
